In patent US9403823B2, “Protein kinase inhibitors” (ORIBASE PHARMA, priority 2012, dated 2016):
Read-outs that look alike come from different tables or passages of the source.

Experiments:
[1] = tested on: A549 cell line; experiment: In vitro cell proliferation assay (MTT), A549; format: cell-based; details: Homo sapiens, read-out: EC50, anti-proliferative activity
Method: (§1) 2) In Vitro Cell Proliferation Assays (Table 22 to Table 35)
(§2) Cancer cell lines (5×10^3 cells per well) or HUVEC (1×10^4 cells per well) or HRMEC (1×10^4 cells per well) were distributed in 96-well plates and incubating in duplicate with escalating concentrations (10 nM to 3 μM) of compounds for 72 hr. Cell proliferation was measured using MTT (3[4,5-dimethylthiazol-2-yl]-2,5-diphenyltetrazolium bromide).

[2] = target: T1, EGFR (ErbB1) T790M L858R (Homo sapiens, UniProt P00533, L858R/T790M); experiment: In vitro kinase assay (Z'-LYTE), EGFR (ErbB1) T790M L858R; format: biochemical; details: read-out: % of inhibition of the kinase compared to the control
T1 construct: purchased Invitrogen
Method: (§3) 1) In Vitro Kinase Assays (Table 10 to Table 21)
(§4) The inhibitory activity of the compounds on several kinases including BRAF, EGFR (ErbB1), EGFR (ErbB1) T790M L858R, FGFR2, KDR (VEGFR2), PDGFRA (PDGFR alpha), SRC and other was evaluated by Invitrogen using the Z′-LYTE® technology. Briefly, the Z′-LYTE® biochemical assay employs a fluorescence-based, coupled-enzyme format and is based on the differential sensitivity of phosphorylated and non-phosphorylated peptides to proteolytic cleavage. The peptide substrate is labeled with two fluorophores—one at each end—that make up a FRET pair. A ratiometric method, which calculates the ratio (the Emission Ratio) of donor emission to acceptor emission after excitation of the donor fluorophore at 400 nm, is used to quantitate reaction progress.
(§5) The compounds are screened in 1% DMSO (final) in the well. For 10 point titrations, 3-fold serial dilutions are conducted from the starting concentration. All Peptide/Kinase Mixtures are diluted to a 2× working concentration in the appropriate Kinase Buffer. All ATP Solutions are diluted to a 4× working concentration in Kinase Buffer (50 mM HEPES pH 7.5, 0.01% BRIJ-35, 10 mM MgCl2, 1 mM EGTA). ATP Km apparent is previously determined using a Z′-LYTE® assay.
(§6) Each compound was incubated at a concentration of 100 nM (excepted to test the activity against ABL and ABL T315I for which the compounds were incubated at a concentration of 10 μM) and the tables 10 to 21 summarize the results obtained showing the inhibitory power of a compound.

[3] = target: T2, SRC (Homo sapiens, UniProt P12931); experiment: In vitro kinase assay (Z'-LYTE), SRC; format: biochemical; details: read-out: % of inhibition of the kinase compared to the control
T2 construct: purchased Invitrogen
Method: as §3, §4, §5, §6

[4] = target: T3, BRAF (Homo sapiens, UniProt P15056); experiment: In vitro kinase assay (Z'-LYTE), BRAF; format: biochemical; details: read-out: % of inhibition of the kinase compared to the control
T3 construct: purchased Invitrogen
Method: as §3, §4, §5, §6

[5] = target: T4, EGFR (ErbB1) (Homo sapiens, UniProt P00533); experiment: In vitro kinase assay (Z'-LYTE), EGFR (ErbB1); format: biochemical; details: read-out: % of inhibition of the kinase compared to the control
T4 construct: purchased Invitrogen
Method: as §3, §4, §5, §6

[6] = target: T5, PDGFRA (PDGFR alpha) (Homo sapiens, UniProt P16234); experiment: In vitro kinase assay (Z'-LYTE), PDGFRA; format: biochemical; details: read-out: % of inhibition of the kinase compared to the control
T5 construct: purchased Invitrogen
Method: as §3, §4, §5, §6

[7] = target: T6, KDR (VEGFR2) (Homo sapiens, UniProt P35968); experiment: In vitro kinase assay (Z'-LYTE), KDR (VEGFR2); format: biochemical; details: read-out: % of inhibition of the kinase compared to the control
T6 construct: purchased Invitrogen
Method: as §3, §4, §5, §6

[8] = target: T7, FGFR2 (Homo sapiens, UniProt P21802); experiment: In vitro kinase assay (Z'-LYTE), FGFR2; format: biochemical; details: read-out: % of inhibition of the kinase compared to the control
T7 construct: purchased Invitrogen
Method: as §3, §4, §5, §6

[9] = tested on: HeLa cell line; experiment: In vitro cell proliferation assay (MTT), HeLa; format: cell-based; details: Homo sapiens, read-out: EC50, anti-proliferative activity
Method: as §1, §2

[10] = tested on: HUVEC; experiment: In vitro cell proliferation assay (MTT), HUVEC; format: cell-based; details: Homo sapiens, read-out: EC50, anti-proliferative activity
Method: as §1, §2

[11] = tested on: HepG2 cell line; experiment: In vitro cell proliferation assay (MTT), HepG2; format: cell-based; details: Homo sapiens, read-out: EC50, anti-proliferative activity
Method: as §1, §2

[12] = tested on: MDA-MB-231 cell line; experiment: In vitro cell proliferation assay (MTT), MDA-MB-231; format: cell-based; details: Homo sapiens, read-out: EC50, anti-proliferative activity
Method: as §1, §2

T6 sequence (P35968 20-1356): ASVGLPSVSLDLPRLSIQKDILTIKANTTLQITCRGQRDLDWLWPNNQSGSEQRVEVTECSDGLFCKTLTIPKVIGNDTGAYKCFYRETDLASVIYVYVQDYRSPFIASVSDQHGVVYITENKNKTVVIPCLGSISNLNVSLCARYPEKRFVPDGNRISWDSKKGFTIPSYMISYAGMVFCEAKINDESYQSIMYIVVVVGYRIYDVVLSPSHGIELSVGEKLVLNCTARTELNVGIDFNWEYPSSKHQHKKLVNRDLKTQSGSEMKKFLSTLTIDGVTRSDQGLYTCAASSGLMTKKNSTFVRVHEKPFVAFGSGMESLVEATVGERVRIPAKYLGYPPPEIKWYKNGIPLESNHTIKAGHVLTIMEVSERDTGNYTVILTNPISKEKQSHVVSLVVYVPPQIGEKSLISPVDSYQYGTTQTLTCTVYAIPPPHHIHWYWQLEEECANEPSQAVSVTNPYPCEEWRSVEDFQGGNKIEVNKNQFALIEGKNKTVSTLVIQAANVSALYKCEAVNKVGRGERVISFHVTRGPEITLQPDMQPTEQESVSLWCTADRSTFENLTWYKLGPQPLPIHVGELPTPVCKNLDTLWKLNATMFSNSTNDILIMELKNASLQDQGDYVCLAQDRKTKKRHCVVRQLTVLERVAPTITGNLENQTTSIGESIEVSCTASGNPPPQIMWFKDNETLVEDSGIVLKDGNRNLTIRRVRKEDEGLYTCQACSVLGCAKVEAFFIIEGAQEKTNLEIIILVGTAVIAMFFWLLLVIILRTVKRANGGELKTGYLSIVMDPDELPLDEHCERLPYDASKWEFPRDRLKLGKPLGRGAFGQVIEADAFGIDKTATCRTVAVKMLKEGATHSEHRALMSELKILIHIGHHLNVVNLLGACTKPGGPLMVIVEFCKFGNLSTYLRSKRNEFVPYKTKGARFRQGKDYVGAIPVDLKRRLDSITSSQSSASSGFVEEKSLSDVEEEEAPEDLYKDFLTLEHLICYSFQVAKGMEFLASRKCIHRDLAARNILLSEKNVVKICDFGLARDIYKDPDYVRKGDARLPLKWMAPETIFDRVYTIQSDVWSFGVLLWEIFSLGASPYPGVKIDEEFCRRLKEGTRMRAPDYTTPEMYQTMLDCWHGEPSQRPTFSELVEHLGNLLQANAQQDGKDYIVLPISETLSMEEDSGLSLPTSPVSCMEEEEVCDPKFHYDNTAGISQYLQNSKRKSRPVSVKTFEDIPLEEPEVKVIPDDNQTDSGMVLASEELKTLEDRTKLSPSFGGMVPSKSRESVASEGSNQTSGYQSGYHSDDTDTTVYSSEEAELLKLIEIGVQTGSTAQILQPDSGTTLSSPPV
T4 sequence (P00533 25-1210): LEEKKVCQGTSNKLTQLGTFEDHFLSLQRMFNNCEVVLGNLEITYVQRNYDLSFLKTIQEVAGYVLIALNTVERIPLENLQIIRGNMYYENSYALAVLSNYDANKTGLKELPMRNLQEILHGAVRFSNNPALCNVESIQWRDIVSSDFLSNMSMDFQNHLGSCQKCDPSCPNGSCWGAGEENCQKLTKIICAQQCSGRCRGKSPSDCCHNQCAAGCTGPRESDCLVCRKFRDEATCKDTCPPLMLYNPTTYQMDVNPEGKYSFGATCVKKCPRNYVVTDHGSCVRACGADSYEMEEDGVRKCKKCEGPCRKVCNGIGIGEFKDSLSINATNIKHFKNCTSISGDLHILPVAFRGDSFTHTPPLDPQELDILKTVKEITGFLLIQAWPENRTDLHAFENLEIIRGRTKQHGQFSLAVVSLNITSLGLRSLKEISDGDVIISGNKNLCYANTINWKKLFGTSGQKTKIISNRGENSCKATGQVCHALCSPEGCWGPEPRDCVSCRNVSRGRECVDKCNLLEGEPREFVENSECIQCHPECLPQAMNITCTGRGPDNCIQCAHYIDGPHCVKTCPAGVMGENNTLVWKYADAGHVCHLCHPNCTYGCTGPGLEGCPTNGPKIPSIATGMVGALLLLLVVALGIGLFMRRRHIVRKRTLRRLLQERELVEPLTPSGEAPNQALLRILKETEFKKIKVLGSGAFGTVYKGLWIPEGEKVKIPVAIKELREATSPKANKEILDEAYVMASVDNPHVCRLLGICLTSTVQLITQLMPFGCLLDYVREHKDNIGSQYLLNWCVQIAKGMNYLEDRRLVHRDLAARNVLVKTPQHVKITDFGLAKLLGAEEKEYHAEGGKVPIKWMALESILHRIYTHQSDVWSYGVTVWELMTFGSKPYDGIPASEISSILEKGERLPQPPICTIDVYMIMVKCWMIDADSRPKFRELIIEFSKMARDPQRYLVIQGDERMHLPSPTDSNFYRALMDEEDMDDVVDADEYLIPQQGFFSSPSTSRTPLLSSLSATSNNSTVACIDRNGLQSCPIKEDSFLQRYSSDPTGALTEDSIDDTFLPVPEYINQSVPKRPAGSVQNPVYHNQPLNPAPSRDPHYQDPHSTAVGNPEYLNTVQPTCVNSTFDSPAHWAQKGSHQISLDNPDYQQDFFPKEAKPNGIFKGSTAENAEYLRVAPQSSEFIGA
T2 sequence (P12931 whole entry): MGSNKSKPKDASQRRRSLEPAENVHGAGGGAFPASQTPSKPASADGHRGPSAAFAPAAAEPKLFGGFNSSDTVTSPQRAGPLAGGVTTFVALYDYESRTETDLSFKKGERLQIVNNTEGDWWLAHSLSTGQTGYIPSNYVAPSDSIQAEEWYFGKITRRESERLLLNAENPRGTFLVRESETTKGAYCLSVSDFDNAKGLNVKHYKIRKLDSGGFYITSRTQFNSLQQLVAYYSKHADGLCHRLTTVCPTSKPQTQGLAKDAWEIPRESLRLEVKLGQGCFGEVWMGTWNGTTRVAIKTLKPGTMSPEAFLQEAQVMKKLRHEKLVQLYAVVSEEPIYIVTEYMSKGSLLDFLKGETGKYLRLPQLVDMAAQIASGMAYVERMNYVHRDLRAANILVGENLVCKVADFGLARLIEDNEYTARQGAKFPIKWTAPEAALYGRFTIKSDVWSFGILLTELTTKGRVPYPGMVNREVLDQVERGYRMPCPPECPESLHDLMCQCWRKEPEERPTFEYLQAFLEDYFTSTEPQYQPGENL
T5 sequence (P16234 24-1089): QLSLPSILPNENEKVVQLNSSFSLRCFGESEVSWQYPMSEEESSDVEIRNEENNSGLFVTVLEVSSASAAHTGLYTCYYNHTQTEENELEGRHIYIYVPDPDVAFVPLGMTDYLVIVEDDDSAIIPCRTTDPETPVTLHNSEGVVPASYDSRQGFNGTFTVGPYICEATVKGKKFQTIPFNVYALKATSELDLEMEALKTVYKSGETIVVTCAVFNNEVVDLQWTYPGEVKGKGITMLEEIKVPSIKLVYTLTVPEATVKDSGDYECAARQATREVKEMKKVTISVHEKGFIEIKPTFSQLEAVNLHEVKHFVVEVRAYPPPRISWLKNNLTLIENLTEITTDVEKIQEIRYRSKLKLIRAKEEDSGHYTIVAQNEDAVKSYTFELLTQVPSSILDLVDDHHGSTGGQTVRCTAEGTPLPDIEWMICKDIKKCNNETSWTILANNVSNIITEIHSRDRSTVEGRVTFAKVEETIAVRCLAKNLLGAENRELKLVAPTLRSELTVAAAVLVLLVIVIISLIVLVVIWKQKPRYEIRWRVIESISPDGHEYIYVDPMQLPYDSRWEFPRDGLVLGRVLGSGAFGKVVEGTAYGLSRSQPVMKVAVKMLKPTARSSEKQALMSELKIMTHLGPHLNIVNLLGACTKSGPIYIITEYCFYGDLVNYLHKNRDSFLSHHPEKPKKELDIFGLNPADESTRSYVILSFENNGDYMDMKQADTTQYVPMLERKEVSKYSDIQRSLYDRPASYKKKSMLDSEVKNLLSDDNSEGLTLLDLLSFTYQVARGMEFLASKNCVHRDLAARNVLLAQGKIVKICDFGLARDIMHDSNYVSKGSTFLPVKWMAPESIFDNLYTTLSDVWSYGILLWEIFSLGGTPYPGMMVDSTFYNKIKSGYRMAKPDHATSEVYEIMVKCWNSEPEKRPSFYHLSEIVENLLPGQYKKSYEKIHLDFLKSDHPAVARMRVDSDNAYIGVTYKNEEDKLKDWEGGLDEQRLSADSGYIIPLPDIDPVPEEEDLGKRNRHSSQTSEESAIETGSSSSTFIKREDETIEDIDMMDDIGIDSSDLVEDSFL
T7 sequence (P21802 22-821): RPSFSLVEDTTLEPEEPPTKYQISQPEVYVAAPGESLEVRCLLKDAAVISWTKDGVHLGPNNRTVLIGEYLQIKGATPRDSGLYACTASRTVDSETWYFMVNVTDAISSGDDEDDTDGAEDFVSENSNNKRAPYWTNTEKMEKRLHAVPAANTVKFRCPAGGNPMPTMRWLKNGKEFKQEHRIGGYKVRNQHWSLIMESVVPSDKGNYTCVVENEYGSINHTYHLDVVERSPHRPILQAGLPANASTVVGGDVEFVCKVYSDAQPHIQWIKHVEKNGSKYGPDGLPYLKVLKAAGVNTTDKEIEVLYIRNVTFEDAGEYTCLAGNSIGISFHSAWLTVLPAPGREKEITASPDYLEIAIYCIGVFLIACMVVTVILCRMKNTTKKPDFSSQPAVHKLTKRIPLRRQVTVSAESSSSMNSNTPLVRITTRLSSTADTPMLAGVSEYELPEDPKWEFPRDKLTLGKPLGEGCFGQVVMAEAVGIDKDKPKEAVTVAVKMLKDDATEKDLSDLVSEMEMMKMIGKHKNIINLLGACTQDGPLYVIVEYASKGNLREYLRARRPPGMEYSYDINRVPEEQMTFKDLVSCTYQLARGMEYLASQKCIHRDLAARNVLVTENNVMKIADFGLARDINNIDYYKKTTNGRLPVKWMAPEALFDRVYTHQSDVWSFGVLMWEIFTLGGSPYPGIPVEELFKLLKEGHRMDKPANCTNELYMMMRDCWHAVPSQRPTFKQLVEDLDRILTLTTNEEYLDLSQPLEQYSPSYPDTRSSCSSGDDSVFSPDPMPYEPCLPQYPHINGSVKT

Compound | EC50 ([1]; A549, 72 hr, MTT) [µM] | inhibition at 0.1 µM [2] [%] | inhibition at 0.1 µM [3] [%] | inhibition at 0.1 µM [4] [%] | inhibition at 0.1 µM [5] [%] | inhibition at 0.1 µM [6] [%] | inhibition at 0.1 µM [7] [%] | inhibition at 0.1 µM [8] [%] | EC50 ([9]; 72 hr, MTT) [µM] | EC50 ([10]; 72 hr, MTT) [µM] | EC50 ([11]; HepG2, 72 h) [µM] | EC50 ([12]; MDA-MB-231, 72 h) [µM] | EC50 ([9]; 72 h) [µM] | EC50 ([10]; 72 h) [µM] | EC50 ([1]; A549, 72 h) [µM] | EC50 ([11]; HepG2, 72 hr, MTT) [µM] | EC50 ([12]; MDA-MB-231, 72 hr, MTT) [µM]
C#Cc1cccc(Nc2ncnc3cc(OCCOC)c(OCCOC)cc23)c1 [Erlotinib, reference compound] | ≥ 1 |  |  |  |  |  |  |  |  |  |  |  |  |  |  |  | 
Cc1ccc(NC(=O)c2ccc(CN3CCN(C)CC3)cc2)cc1CNc1cnc2[nH]c(C(=O)O)cc2c1 [OR0692, 5-{2-Methyl-5-[4-(4-methyl-piperazin-1-ylmethyl)-benzoylamino]-benzylamino}-1H-pyrrolo[2,3-b]pyridine-2-carboxylic acid] |  | < 50 | ≥ 50 | < 50 | ≥ 50 | ≥ 50 | ≥ 50 | < 50 |  |  |  |  |  |  |  |  | 
CC(=O)c1cc2cc(NCc3cc(NC(=O)c4cc(-n5cnc(C)c5)cc(C(F)(F)F)c4)ccc3C)cnc2[nH]1 [OR0719, N-{3-[(2-Acetyl-1H-pyrrolo[2,3-b]pyridin-5-ylamino)-methyl]-4-methyl-phenyl}-3-(4-methyl-imidazol-1-yl)-5-trifluoromethyl-benzamide] |  | < 50 | ≥ 50 | ≥ 50 | < 50 | < 50 | < 50 | < 50 |  |  |  |  |  |  |  |  | 
CC(=O)c1cc2cc(NCc3cc(NC(=O)c4ccc(CN5CCN(C)CC5)c(F)c4)ccc3C)cnc2[nH]1 [OR0885, N-{3-[(2-Acetyl-1H-pyrrolo[2,3-b]pyridin-5-ylamino)-methyl]-4-methyl-phenyl}-3-fluoro-4-(4-methyl-piperazin-1-ylmethyl)-benzamide] | ≥ 1 |  |  | ≥ 50 | ≥ 50 |  | ≥ 50 | ≥ 50 | ≥ 1 | ≥ 1 | 0.1 to 1 | 0.1 to 1 |  |  |  |  | 
CC(=O)c1cc2cc(NCc3cccc(NC(=O)c4ccc(CN5CCN(C)CC5)c(C(F)(F)F)c4)c3)cnc2[nH]1 [OR0926, N-{3-[(2-Acetyl-1H-pyrrolo[2,3-b]pyridin-5-ylamino)-methyl]-phenyl}-4-(4-methyl-piperazin-1-ylmethyl)-3-trifluoromethyl-benzamide] |  |  |  | < 50 | ≥ 50 |  | ≥ 50 | ≥ 50 |  |  | ≤ 0.1 | ≤ 0.1 | 0.1 to 1 | 0.1 to 1 | 0.1 to 1 |  | 
CC(=O)c1cc2cc(NCc3cc(NC(=O)c4ccn[nH]4)ccc3C)cnc2[nH]1 [OR0987, 2H-Pyrazole-3-carboxylic acid {3-[(2-acetyl-1H-pyrrolo[2,3-b]pyridin-5-ylamino)-methyl]-4-methyl-phenyl}-amide] |  |  | < 50 | ≥ 50 | < 50 | ≥ 50 | ≥ 50 | < 50 |  | ≥ 1 |  |  |  |  |  | ≥ 1 | 
CC(=O)c1cc2cc(NCc3cc(NC(=O)c4ccncn4)ccc3C)cnc2[nH]1 [OR0988, Pyrimidine-4-carboxylic acid {3-[(2-acetyl-1H-pyrrolo[2,3-b]pyridin-5-ylamino)-methyl]-4-methyl-phenyl}-amide] |  |  | < 50 | < 50 | < 50 | < 50 | < 50 | < 50 |  | ≥ 1 |  |  |  |  |  | ≥ 1 | 
Cc1ccc(NC(=O)c2cncc(C(F)(F)F)c2)cc1C(=S)Nc1cnc2[nH]c(C(=O)O)cc2c1 [OR1053] | ≥ 1 |  | ≥ 50 | < 50 | ≥ 50 | ≥ 50 | < 50 | < 50 |  | ≥ 1 |  |  |  |  |  | ≥ 1 | ≥ 1
CC(=O)c1cc2cc(NCc3cc(NC(=O)C4CCC(C(F)(F)F)CC4)ccc3F)cnc2[nH]1 (stereo not shown) [OR1058, 4-Trifluoromethyl-cyclohexanecarboxylic acid {3-[(2-acetyl-1H-pyrrolo[2,3-b]pyridin-5-ylamino)-methyl]-4-fluoro-phenyl}-amide] | ≥ 1 |  |  |  |  |  |  |  | ≥ 1 | ≥ 1 |  |  |  |  |  | ≥ 1 | ≥ 1
CC(=O)c1cc2cc(NCc3cc(NC(=O)c4cc(N5CCN(C)CC5)cc(C(F)(F)F)c4)ccc3F)cnc2[nH]1 [OR1060, N-{3-[(2-Acetyl-1H-pyrrolo[2,3-b]pyridin-5-ylamino)-methyl]-4-fluoro-phenyl}-3-(4-methyl-piperazin-1-yl)-5-trifluoromethyl-benzamide] |  |  |  |  |  |  |  |  | ≥ 1 |  | ≤ 0.1 | 0.1 to 1 |  | 0.1 to 1 | 0.1 to 1 |  | 
COc1ccccc1C(=O)Nc1ccc(F)c(CNc2cnc3[nH]c(C(C)=O)cc3c2)c1 [OR1063, N-{3-[(2-Acetyl-1H-pyrrolo[2,3-b]pyridin-5-ylamino)-methyl]-4-fluoro-phenyl}-2-methoxy-benzamide] | ≥ 1 |  |  |  |  |  |  |  | ≥ 1 | ≥ 1 |  |  |  |  |  | ≥ 1 | ≥ 1
CCCCCCNC(=O)c1cc2cc(NCc3cc(NC(=O)c4ccc(CN5CCN(C)CC5)c(C(F)(F)F)c4)ccc3C)cnc2[nH]1 [OR1069, 5-{2-Methyl-5-[4-(4-methyl-piperazin-1-ylmethyl)-3-trifluoromethyl-benzoylamino]-benzylamino}-1H-pyrrolo[2,3-b]pyridine-2-carboxylic acid hexylamide] |  |  |  |  |  |  |  |  | ≥ 1 |  | 0.1 to 1 | 0.1 to 1 |  | 0.1 to 1 |  |  | 
CCN(CC)C(=O)c1cc2cc(NCc3cc(NC(=O)c4ccc(CN5CCN(C)CC5)c(C(F)(F)F)c4)ccc3C)cnc2[nH]1 [OR1076, 5-{2-Methyl-5-[4-(4-methyl-piperazin-1-ylmethyl)-3-trifluoromethyl-benzoylamino]-benzylamino}-1H-pyrrolo[2,3-b]pyridine-2-carboxylic acid diethylamide] |  |  |  |  |  |  |  |  |  |  |  |  |  |  | 0.1 to 1 |  | 
